# Measurements: patent US7001910B1, “Thiazolidinedione derivatives as antidiabetic agents” (Vita-Invest S.A., priority 1999, dated 2006)
# What was measured:
# [1] = test system: genetically diabetic C57 BL male db/db mice; test: Plasma glucose reduction in genetically diabetic db/db mice after 5 days of oral treatment; assay type: in vivo; settings: Mus musculus, 120 h, 5 consecutive days, plasma glucose reduction vs basal level before treatment; for inhibition in vivo at 1 mg/kg: 1 mg/kg p.o.; for inhibition in vivo at 10 mg/kg: 10 mg/kg p.o.; for inhibition in vivo at 5 mg/kg: 5 mg/kg p.o.
# Method: The pharmacological effect of the compounds is assessed in genetically diabetic C57 BL male db/db 9–11 weeks old mice, as well as in control C57 BL db/+ animals of the same strain and age. […] In each experimental group, 8–10 animals are used, which are treated with different doses of the compounds: 1 mg/kg, 5 mg/kg, 10 mg/kg or 25 mg/kg orally during 5 consecutive days.
# In the day 0 of the experiment, blood samples are collected in heparinized tubes by punction of the retroorbital vein. Plasma is separated and the levels of basal glucose and insulin are quantified.
# After concluding the treatments, blood samples of each animal are collected again and plasmatic post-treatment glucose and insulin levels are quantified.
# The determination of glucose is carried out by means of an enzymatic method that converts glucose into glucose 6-phosphate, a reaction coupled with the reduction of nicotinamide-dinucleotide phosphate (NADP) to NADPH by the action of glucose-6-P-dehydrogenase. The NADPH reduces the iodonitrotetrazolium, which is quantified spectrophotometrically. The absorbency at 520 nm is proportional to the concentration of glucose, ref: Randox GI, 2623 (Bergmeyer H. U., Bernt E., Schmidt F. H., Stork H. In Methods of Enzymatic Analysis, Academic Press: London and New York 1974, p. 1196).
# The results are expressed as the reduction percent with regard to the basal levels determined before the beginning of the treatment.
# [2] = test system: genetically diabetic C57 BL male db/db mice; test: as above; assay type: in vivo; settings: Mus musculus, 120 h, 100 mg/kg p.o., 5 consecutive days, plasma glucose reduction vs basal level before treatment
smiles,measurement,setting,value
"CN(CCOc1ccc(CC2SC(=O)NC2=O)cc1)c1cc(Cl)ncn1 (centres unmarked) [Example 14, 5-(4-{2-[(6-chloropyrimidin-4-yl)-methylamino]-ethoxy}-benzyl)-thiazolidine-2,4-dione]",inhibition in vivo at 1 mg/kg,[1],51%
"COc1cc(N(C)CCOc2ccc(CC3SC(=O)NC3=O)cc2)nc(OC)n1 (centres unmarked) [Example 4, 5-(4-{2-{(2,6-Dimethoxypyrimidin-4-yl)-methyl-amino]-ethoxy}-benzyl)-thiazolidine-2,4-dione]",inhibition in vivo at 1 mg/kg,[1],53%
"CN(CCOc1ccc(CC2SC(=O)NC2=O)cc1)c1cc(Cl)nc(N)n1 (centres unmarked) [Example 3, 5-(4-{2-[(2-amino-6-chloropyrimidin-4-yl)-methyl-amino]-ethoxy}-benzyl)-thiazolidine-2,4-dione]",inhibition in vivo at 1 mg/kg,[1],47%
"CN(CCOc1ccc(CC2SC(=O)NC2=O)cc1)c1ncnc2nc[nH]c12 (centres unmarked) [Example 7, 5-(4-{2-[Methyl-(7H-purin-6-yl)-amino]-ethoxy}-benzyl)-thiazolidine-2,4-dione]",inhibition in vivo at 10 mg/kg,[1],47%
CN(CCOc1ccc(CC2SC(=O)NC2=O)cc1)c1ncnc2c1ncn2C1OC(CO)C(O)C1O (centres unmarked) [Example 11],inhibition in vivo at 10 mg/kg,[1],30%
Cc1c(C)c2c(c(C)c1O)CCC(C)(COc1ccc(CC3SC(=O)NC3=O)cc1)O2 (centres unmarked) [Troglitazone],inhibition in vivo at 100 mg/kg,[2],38%
"CN(CCOc1ccc(CC2SC(=O)NC2=O)cc1)c1ncnc2c1ncn2C (centres unmarked) [Example 12, 5-(4-{2-[Methyl-(9-methyl-9H-purin-6-yl)-amino]-ethoxy}-benzyl)-thiazolidine-2,4-dione]",inhibition in vivo at 10 mg/kg,[1],25%
"CN(CCOc1ccc(CC2SC(=O)NC2=O)cc1)c1ccncn1 (centres unmarked) [Example 20, 5-{4-[2-(Methylpyrimidin-4-yl-amino)ethoxy]benzyl}-thiazolidine-2,4-dione]",inhibition in vivo at 5 mg/kg,[1],21%
"CN(C)c1cc(N(C)CCOc2ccc(CC3SC(=O)NC3=O)cc2)ncn1 (centres unmarked) [Example 21, 5-(4-{2-[(6-Dimethylaminopyrimidin-4-yl)-methylamino]-ethoxy}-benzyl)-thiazolidine-2,4-dione]",inhibition in vivo at 25 mg/kg,[1]; 25 mg/kg p.o.,36%
"COc1cc(N(C)CCOc2ccc(CC3SC(=O)NC3=O)cc2)ncn1 (centres unmarked) [Example 17, 5-(4-{2-[(6-Methoxypyrimidin-4-yl)-methylamino]-ethoxy}-benzyl)-thiazolidine-2,4-dione]",inhibition in vivo at 1 mg/kg,[1],48%
"CN(CCOc1ccc(CC2SC(=O)NC2=O)cc1)c1cc(O)ncn1 (centres unmarked) [Example 22, 5-(4-{2-[(6-Hydroxypyrimidin-4-yl)-methylamino]-ethoxy}-benzyl)-thiazolidine-2,4-dione]",inhibition in vivo at 5 mg/kg,[1],22%
